Measurements as given in US20230332232A1, “COMPOSITIONS AND METHODS FOR DIAGNOSING AND TREATING A DYSTONIA” (Duke University, priority 2020, published 2023).

System: wild-type (WT) murine embryonic fibroblasts (MEFs)
Experiment: Untargeted LC/MS/MS proteomics of EVs from WT MEFs exposed 24 hours to drug, compared with untreated WT MEFs
Type: cell-based, mouse
Description: Methods for isolation and purification of exosomes and extracellular vesicles (EV) were extensively reviewed. Experiments were performed to arrive at a robust and reproducible protocol. The protocol used herein is that set forth in Théry et al, 2006, which is incorporated by reference for it teaching of this protocol. This protocol involves depleting serum-derived EVs from cell culture media by overnight ultracentrifugation and exchanging media for 1% FBS EV-depleted media. Media is then collected from cells following a 24-hour conditioning period and EVs are isolated by 18-hour ultracentrifugation at 100,000 g (FIG. 1A).
EVs were isolated from media of cultured murine embryonic fibroblasts (MEFs) prepared in-house according to protocols described by Xu 2005 from DYT1 knockin mice (Tor1a^delGAG/+) (Goodchild R E, et al. (2005) Neuron. 48:923-932) and littermate wild-type (WT) controls. The cultured MEFs from the DYT1 mice were exposed for 24 hours to Ritonavir (RTV) while the MEFs from WT mice were exposed to vehicle, ISRIB, or Salubrinal (SAL). The EVs isolated from these WT cells and DYT1 were characterized by untargeted proteomics and RNA-seq to identify differentially expressed proteins and RNAs as candidate biomarkers. Experimenter and Proteomics core staff were blinded to genotype of cell cultures throughout preparation and analysis phases. EV isolation was confirmed by Western immunoblot documenting presence of the exosomal marker (TSG101) and absence of the endoplasmic reticulum (ER) marker (CANX) (FIG. 1B (Cohort 1) and FIG. 1C (Cohort 2)).
Following the bicinchoninic acid assay (BCA) analysis and Western immunoblot of a portion of samples for QC, 11.6 μg-129.2 μg of EV protein lysates in RIPA buffer were sent to the Duke Proteomics and Metabolomics Shared Resource core facility for LC/MS/MS quantitative proteomic analysis. Samples were first normalized to 20 μg and spiked with undigested casein at a total of 40 fmol/μg, 80 fmol/μg, or 160 fmol/μg, then reduced with 10 mM dithiolthreitol for 30 minute at 80° C. and alkylated with 20 mM iodoacetamide for 30 minutes at room temperature. Next, the samples were supplemented with a final concentration of 1.2% phosphoric acid and 741 μL of S-Trap (Protifi) binding buffer (90% MeOH/100 mM […]). Proteins were trapped on the S-Trap, digested using 20 ng/μL sequencing grade trypsin (Promega) for 1 hour at 47° C., and eluted using 50 mM TEAB, followed by 0.2% FA, and lastly using 50% CAN/0.2% FA. All samples were then lyophilized to dryness and resuspended in 40 μL 1% TFA/2% acetonitrile containing 12.5 fmol/μL yeast alcohol dehydrogenase (ADH_YEAST). A QC Pool was created from 3 uL of each sample. All QC Pools were run periodically throughout the acquisition period.
Quantitative LC/MS/MS was performed on 2 μL of each sample, using a nanoAcquity UPLC system (Waters Corp) coupled to a Thermo Orbitrap Fusion Lumos high resolution accurate mass tandem mass spectrometer (Thermo) via a nanoelectrospray ionization source. Briefly, the sample was first trapped on a Symmetry C18 20 mm×180 μm trapping column (5 μL/min at 99.9/0.1 v/v water/acetonitrile), after which the analytical separation was performed using a 1.8 μm Acquity HSS T3 C18 75 μm×250 mm column (Waters Corp.) with a 90 minute linear gradient of 5% to 30% acetonitrile with 0.1% formic acid at a flow rate of 400 nanoliters/minute (nL/min) with a column temperature of 55° C. Data collection on the Fusion Lumos mass spectrometer was performed in a data-dependent acquisition (DDA) mode of acquisition with a r=120,000 (@ m/z 200) full MS scan from m/z 375-1500 with a target AGC value of 2e5 ions. MS/MS scans were acquired at Rapid scan rate (Ion Trap) with an AGC target of 5e3 ions and a max injection time of 100 ms. The total cycle time for MS and MS/MS scans was 2 seconds. A 20 second dynamic exclusion was employed to increase depth of coverage. The total analysis cycle time for each sample injection was approximately 2 hours. […]

Measured: ISRIB Direction Same as dE?

O=C(COc1ccc(Cl)cc1)NC1CCC(NC(=O)COc2ccc(Cl)cc2)CC1 (stereo not shown) [ISRIH]
yes: EV protein: 26S proteasome non-ATPase regulatory subunit 8 | EV protein: 60S [?] subunit biogenesis protein [?] homolog | EV protein: 116 kDa [?] small nuclear ribonucleoprotein component | EV protein: AP-3 complex subunit [?] | EV protein: ATP- binding cassette sub-family [?] member 1 | EV protein: ATP-dependent RNA helicase [?] | EV protein: Acetyl-CoA carboxylase 1 | EV protein: Acyl-protein thioesterase 2 | EV protein: Anaphase-promoting complex subunit 2 | EV protein: Anaphase-promoting complex subunit 4 | EV protein: Anaphase-promoting complex subunit 5 | EV protein: Anaphase-promoting complex subunit 7 | EV protein: Apolipoprotein M | EV protein: Cell [?] cycle protein [?] homolog | EV protein: Cell division cycle protein 27 homolog | EV protein: Coiled-coil domain-containing protein 22 | EV protein: Cullin-2 | EV protein: Cullin-5 | EV protein: Cullin-7 | EV protein: Cytosolic purine [?] -nucleotidase | EV protein: DNA [?] (r264) | EV protein: DNA [?] licensing factor MCM4 | EV protein: DNA ligase 1 | EV protein: DNA replication licensing factor MCM5 | EV protein: DNA replication licensing factor [?] | EV protein: DNA-directed RNA polymerase II subunit RPB1 | EV protein: DNA-directed RNA polymerase II subunit RPB2 | EV protein: DNA-directed RNA polymerase II subunit RPB3 | EV protein: DNA-directed RNA polymerase [?] subunit RPA2 | EV protein: DNA-directed RNA polymerases I, II, and III subunit RPABC3 | EV protein: DNA-directed RNA polymerases I, II, and III subunit [?] | EV protein: Developmentally-regulated GTP-binding protein 2 | EV protein: Double-strand-break repair protein rad21 homolog | EV protein: Dual specificity mitogen-activated protein kinase kinase 4 | EV protein: Dynactin subunit 4 | EV protein: E3 ubiquitin-protein ligase [?] | EV protein: Elongin-B | EV protein: Exosome complex exonuclease RRP44 | EV protein: Gamma-tubulin complex component 2 | EV protein: Glucose-6-phosphate 1-dehydrogenase [?] | EV protein: Glycosylated lysosomal membrane protein | EV protein: Glycylpeptide N-tetradecanoyltransferase 1 | EV protein: Golgi reassembly-stacking protein 2 | EV protein: Histone-arginine methyltransterase CARM1 | EV protein: Immunity-related GTPase family M protein 1 | EV protein: Interleukin enhancer-binding factor 3 | EV protein: Leucyl-cystinyl aminopeptidase | EV protein: Lysine-specific histone demethylase [?] | EV protein: Mediator [?] RNA polymerase II transcription subunit 23 | EV protein: Metastasis-associated protein [?] (r222) | EV protein: Metastasis-associated protein [?] (r261) | EV protein: Methyl-CpG-binding domain protein [?] | EV protein: Microtubule-associated protein [?] | EV protein: N-alpha-acetyltransferase 10 | EV protein: Nuclear [?] complex protein [?] | EV protein: Nuclear cap-binding protein subunit 1 | EV protein: NudC domain-containing protein 1 | EV protein: Phosphoribosyl pyrophosphate synthase-associated protein 1 | EV protein: Probable ubiquitin carboxyl-terminal hydrolase [?] | EV protein: Protein O-GlcNAcase | EV protein: Protein RMD5 homolog A | EV protein: Protein [?] 14 homolog | EV protein: Protein transport protein [?] | EV protein: Ran-binding protein 10 | EV protein: Ribosome biogenesis protein BOP1 | EV protein: Ribosome production factor 2 homolog | EV protein: Serine threonine-protein phosphatase 2A 56 kDa regulatory subunit gamma isoform | EV protein: Serine threonine-protein phosphatase 6 catalytic subinit | EV protein: Sorting nexin-1 | EV protein: Splicing factor 3B subunit 4 | EV protein: Structural maintenance of [?] protein 2 | EV protein: WASH complex subunit 5 | EV protein: WD repeat-containing protein [?] | EV protein: WW domain-binding protein 2 | EV protein: [?] 2 (r185) | EV protein: [?] (r186) | EV protein: [?] -1 (r187) | EV protein: [?] -1 (r232) | EV protein: [?] -conjucating enxyme [?] | EV protein: [?] -promoting complex subunit 1 | EV protein: [?] -related [?] -associated actin-dependent regulator [?] chromatin subfamily A member 5 | EV protein: [?] complex subunit 2 | EV protein: [?] kinase | EV protein: [?] repeat-containing protein 5A | EV protein: [?] small nuclear ribonucleoprotein 40 kDa protein | EV protein: [?] small nucleolar RNA-associated protein 15 homolog | EV protein: [?] ubiquitin-protein ligase [?] | EV protein: p21-activated protein kinase-interacting protein 1 | EV protein: transportin-3 | WT MEF EVs, protein: DNA replication licensing factor MCM6 | WT MEF EVs, protein: DNA-directed RNA polymerases I and III subunit RPAC1 | WT MEF EVs, protein: Protein arginine N-methyltransferase 3 | WT MEF EVs, protein: Scavenger receptor class B member 1 | WT MEF EVs, protein: Serine threonine-protein phosphatase 2A 55 kDa regulatory subunit B alpha isoform | WT MEF EVs, protein: Small nuclear ribonucleoprotein-associated protein B | WT MEF EVs, protein: WASH complex subunit 4 | WT MEF EVs, protein: WD repeat-containing protein 26
